Laboratory results reported in paper doi:10.1101/2022.02.09.479835v1 (biorxiv, 2022).
Where a SMILES comes first, the peptide text is derived from it. The star is where a group is joined. Cbz = O=C(OCc1ccccc1)*

Target: 3CL-Pro (Severe acute respiratory syndrome coronavirus 2, UniProt P0DTD1)
Assay: biochemical
Conditions: not given

How did the IC50 turn out when `C[C@H](NC(=O)[C@H](Cc1ccccc1)NC(=O)OCc1ccccc1)C(=O)CF` [Z-FA-FMK] was run?
Its IC50 is 9.67 µM.

Target: human CatL (cathepsin-L, CTSL) (Homo sapiens, UniProt P07711)
Assay: FRET peptide cleavage HTS
Format: biochemical
Conditions: read-out: % inhibition at 20 uM

human CatL (cathepsin-L, CTSL), sequence (P07711 114-288): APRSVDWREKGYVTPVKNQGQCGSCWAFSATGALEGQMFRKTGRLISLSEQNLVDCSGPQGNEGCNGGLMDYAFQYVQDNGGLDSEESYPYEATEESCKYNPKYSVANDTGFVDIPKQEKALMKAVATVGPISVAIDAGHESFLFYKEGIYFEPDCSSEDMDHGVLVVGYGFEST
human CatL (cathepsin-L, CTSL), sequence (P07711 292-333): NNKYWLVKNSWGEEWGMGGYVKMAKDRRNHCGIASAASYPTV

How did the inhibition at 20 µM turn out when `CC(C)C[C@H](NC(=O)OCc1ccccc1)C(=O)N[C@@H](C[C@@H]1CCNC1=O)C(O)S(=O)(=O)O` (stereo partly drawn) [GC-376] was run?
Its inhibition at 20 µM is greater than 50%.

How did the inhibition at 20 µM turn out when `CCCN1CCN(c2ccc(C(=O)NC3(C(=O)NCC#N)CCCCC3)cc2)CC1` [balicatib] was run?
The inhibition at 20 µM was greater than 50%.

With `C[C@H](NC(=O)[C@H](Cc1ccccc1)NC(=O)OCc1ccccc1)C(=O)CF` [Z-FA-FMK] as the compound, how does the inhibition at 20 µM read?
The inhibition at 20 µM was greater than 50%.

`CC(=O)N[C@@H](CC(C)C)C(=O)N[C@@H](CC(C)C)C(=O)N[C@H](C=O)CCCNC(=N)N` [leupeptin hemisulfate] was tested. Which inhibition at 20 µM did it give?
The inhibition at 20 µM was greater than 50%.

How did the inhibition at 20 µM turn out when `CC(C)C[C@@H](C=O)NC(=O)[C@H](CC(C)C)NC(=O)[C@H](CC(C)C)NC(=O)OCc1ccccc1` [MG-132] (Cbz-Leu-Leu-Leu-aldehyde) was run?
The inhibition at 20 µM was greater than 50%.
